Source: patent publication US20190375778A1, “ADENOSINE DERIVATIVES FOR USE IN THE TREATMENT OF CANCER” (NuCana plc, priority 2016, published 2019)
Read-outs that look alike come from different tables or passages of the source.

Columns and labels:
FM3A = test: Cytotoxicity, FM3A; format: cell-based, murine; conditions: Mus musculus, read-out: absolute IC50, FM3A
Excerpt: Lovo: cell line derived from a metastatic site in a patient with colon cancer MCF7: human oestrogen sensitive mammary epithelial cell line PC3: human prostate cancer cell line A549: cancerous lung tissue derived cells L1210: lymphoblast cell line derived from a mouse with lymphocytic leukaemia FM3A: mammary carcinoma murine cells CEM: human T-lymphoblasts, derived from the blood of a patient with acute lymphoblastic leukaemia HeLa: epithelial cells from a patient with cervical adenocarcinoma

CTS = test: ATP ViaLight cytotoxicity assay, CTS; format: cell-based; conditions: 72 h
Description: (§1) HL-60, CTS, and K-562 are leukaemia cell lines, which were obtained from the American Type Culture Collection (ATCC), Middlesex. HL-60 cell line is of acute promyelocytic leukaemia; CTS cell line is of acute myeloid leukaemia; and K-562 cell line is of chronic myeloid leukaemia.
(§2) HL-60, CTS, and K-562 cell lines were cultured in RPMI-1640 medium (Sigma Aldrich, UK), which was supplemented with 10% Fetal Bovine Serum (FBS) (PAA Laboratories), 1% amphotericin B (5.5 ml) and 1% penicillin/streptomycin (5.5 ml) (PAA Laboratories) and grown in flasks at 37° C. incubator with 5% CO2.
(§3) For inhibitor studies the cell lines were treated in the same way as described above but before treatment with drugs, a number of inhibitors were added: • 1) Nitrobenzylthioinosine (NBTI) (Sigma-Aldrich, St. Louis, Mo.) inhibits hENT1. • 2) A-134974 dihydrochloride hydrate (Sigma-Aldrich, St. Louis, Mo.) inhibits adenosine kinase. • 3) EHNA hydrochloride (Sigma-Aldrich, St. Louis, Mo.) inhibits adenosine deaminase.
[…] For inhibitor studies, 10 M concentration of each inhibitor was added before drugs and incubated for 72 hours at 37° C. with 5% CO2.
(§4) After incubation, 50 μl of cell lysis reagent was added to the 96 well plates to release the intracellular ATP, followed by 100 μl of ATP monitoring reagent (AMR). The luminescent values of each well were determined using FLUOstar OPTIMA microplate reader (BMG Labtech) which converted ATP into light by using luciferase enzyme.
(§5) The dose-response curves of cytotoxicity of the drugs was determined using non-linear regression analysis of percentage cell viability versus concentration and EC50 values were obtained. The intracellular assay was conducted in five repeats for each condition. Intracellular assay was determined using paired T test (two-tailed) analysis of 8-ChloroATP/ATP concentration and p values were obtained. Drug stability in human plasma was determined using two-way ANOVA analysis. For all the analysis, Prism Software program (GraphPad Software) was used.

K-562 cell line = test: Intracellular 8-Cl-ATP/ATP by LC-MS/MS, K-562; format: cell-based; conditions: for difference in intracellular accumulation of 8-Cl-ATP on inhibiting hENT1: K-562, with NBTI
Description: (§6) Cell lines with 3×10^6 cells/ml were used. Cells were treated with 1 μl of 20 μM of each 8-Cl-A, compound A, compound B and compound D and incubated for 2 hours at 37° C. with 5% CO2. After incubation, the cells were centrifuged (ambient, 1200 rpm, 5 minutes), the supernatant was removed, and the pellet was washed with lml of PBS and centrifuged (ambient, 1200 rpm, 5 minutes). The supernatant was removed, the pellet was reconstituted in 100 μl of PBS and 100 μl of 0.8M perchloric acid. This was then centrifuged (ambient, 1200 rpm, 5 minutes) and 180 μl of the supernatant was transferred to new tubes and stored at −80° C. until time of analysis.
as §3
(§7) Cells were treated with 1 μl of 10 μM of each inhibitor and left for 5 minutes before adding the drug. The cells were then incubated for 2 hours at 37° C. with 5% CO2.
(§8) The analytes were resolved using an ultra-performance liquid chromatography system (Accela UPLC, Thermo Scientific, UK) equipped with a Biobasic A×5 μm, 50×2.1 mm column (Thermo Electron Corporation, Murrieta, Calif., USA) and mobile phase consisting of a mixture of 10 mM NH4Ac in ACN/H2O (30:70 v/v), pH6.0 (A), and 1 mM NH4Ac in ACN/H2O (30:70 v/v), pH10.5 (B). The mobile phase gradient was employed, comprising: buffer A=95% at 0-0.5 minutes, from 95 to 0% over 1.25 minutes, held at 0% for 1.75 minutes, from 0-95% over 0.1 minutes, ending with 95% for 2.9 minutes, all at a flow rate of 500 μl/min.
(§9) For compounds detection a triple stage quadrupole Vantage mass spectrometry system (Thermo Scientific, UK) equipped with an electrospray ion source was used. Samples were analysed in the Multiple Reaction Monitoring, negative ion modes at spray voltage 3000V.
as §5

CTS cell line = test: Intracellular 8-Cl-ATP/ATP by LC-MS/MS, CTS; format: cell-based; conditions: for difference in intracellular accumulation of 8-Cl-ATP on inhibiting hENT1: with NBTI
Description: as §6, §3, §7, §8, §9, §5

MDAMB231 = test: CellTiterGlo viability assay, MDAMB231; format: cell-based, Human; conditions: for IC50: Homo sapiens, read-out: IC50 MDAMB231
Description: In vitro viability assay were performed to assess the effects of compounds on cell viability in selected cell lines over ˜72 hrs using the CellTiterGlo (CTG, Promega-G7573) assay. The tests were performed in duplicates with treatment of compounds at 9 points, 3.16 folds titration in 96 well plates over ˜72 hrs. The compound starting concentrations were 198 μM. Cell viability assay using CellTiterGlo in 96-well plate were performed. Compound treatment 72 hrs, standard growth conditions, duplicates. Compounds were dissolved to 40 mM with thawed […]. Compounds were serially diluted at 3.16 fold in thawed DMSO, and warmed to 37° C. before being dissolved in media (2 μl+200 μl). After compounds were dissolved in media, media containing compounds were warmed to 37° C. in incubator and then compounds in media were added to cell plates (50 μl+50 μl) in duplicates. The compounds' final concentrations were from […] to 19.9 nM. All compound solubilities were checked and recorded again, then the plates were transferred to CO2 tissue culture incubator immediately and incubated for 3 days. DMSO final concentration is 0.5%.

K-562 = test: ATP ViaLight cytotoxicity assay, K-562; format: cell-based; conditions: Homo sapiens, K562, 72 h
Description: as §1, §2, §3
ATP ViaLight™ plus assay kit (Lonza, USA: Product No. LT07-121) was used for treating the cells in luminescence compatible 96 well plates (initial concentration of cells was 1×10^4 cells/well) with 8-Cl-A and ProTides, concentrations: 0, 0.1, 0.5, 1, 5 and 10 μM were added to cells, respectively, followed by incubation for 72 hours at 37° C. incubator with 5% CO2. For inhibitor studies, […] concentration of each inhibitor was added before drugs and incubated for 72 hours at 37° C. with 5% CO2.
as §4, §5

[1] = with A-134974 (adenosine kinase inhibitor)

| SMILES | IC50 (FM3A) [µM] | EC50 (CTS; [1]) [µM] | EC50 (CTS; with NBTI (hENT1 inhibitor)) [µM] | difference in 8-Cl-ATP concentration on inhibiting adenosine kinase (K-562 cell line; K-562, with A-134974) | difference in intracellular accumulation of 8-Cl-ATP on inhibiting hENT1 (K-562 cell line) | difference in intracellular accumulation of 8-Cl-ATP on inhibiting adenosine kinase (CTS cell line; with A-134974) | difference in intracellular accumulation of 8-Cl-ATP on inhibiting hENT1 (CTS cell line) | EC50 (CTS; Control (no inhibitor)) [µM] | MI% MDAMB231 (MDAMB231; CellTiterGlo, 72 hrs) [%] | IC50 (MDAMB231; MDA-MB-231, 72 h) [µM] | EC50 (K-562; Control (no inhibitor)) [µM] | EC50 (K-562; with NBTI (hENT1 inhibitor)) [µM] | 8-Cl-ATP/ATP ratio after inhibiting adenosine kinase (K-562 cell line; K-562, with A-134974) | IC50 (MDAMB231; MDA-MB-231, CellTiterGlo, 72 hrs) [µM] | 8-Cl-ATP/ATP ratio after inhibiting adenosine kinase (CTS cell line; with A-134974) | EC50 (K-562; [1]) [µM] |
| --- | --- | --- | --- | --- | --- | --- | --- | --- | --- | --- | --- | --- | --- | --- | --- | --- |
| C[C@H](NP(=O)(OC[C@H]1O[C@@H](n2c(Cl)nc3c(N)ncnc32)[C@H](O)[C@@H]1O)Oc1ccccc1)C(=O)OCc1ccccc1 (mixture of isomers) [C, (2S)-Benzyl 2-(((((2R,3S,4R,5R)-5-(6-amino-8-chloro-9H-purin-9-yl)-3,4-dihydroxy-tetrahydrofuran-2-yl)methoxy)(phenoxy)phosphoryl)amino)propanoate] | 15 to 100 |  |  |  |  |  |  |  |  |  |  |  |  |  |  |  |
| Nc1ncnc2c1nc(Cl)n2[C@@H]1O[C@H](COP(=O)(NCC(=O)OC2CCCCC2)Oc2ccccc2)[C@@H](O)[C@H]1O (mixture of isomers) [Compound A, Cyclohexyl 2-(((((2R,3S,4R,5R)-5-(6-amino-8-chloro-9H-purin-9-yl)-3,4-dihydroxy-tetrahydrofuran-2-yl)methoxy)(phenoxy)phosphoryl)amino)acetate] | > 100 | 28 | 270 | did not produce significant difference | did not produce significant difference | did not produce significant difference | did not produce significant difference |  |  |  |  |  |  |  |  |  |
| Nc1ncnc2c1nc(Cl)n2[C@@H]1O[C@H](COP(=O)(NCC(=O)OCc2ccccc2)Oc2ccccc2)[C@@H](O)[C@H]1O (mixture of isomers) [Compound B, Benzyl 2-(((((2R,3S,4R,5R)-5-(6-amino-8-chloro-9H-purin-9-yl)-3,4-dihydroxytetra-hydrofuran-2-yl)methoxy)(phenoxy)phosphoryl)amino)acetate] | 0.1 to 5 |  | 63.9 |  | did not produce significant difference | did not produce significant difference | did not produce significant difference | 16.3 | 76 | 5 to 15 | 2.86 | 12.8 |  |  |  |  |
| Nc1ncnc2c1nc(Cl)n2[C@@H]1O[C@H](CO)[C@@H](O)[C@H]1O [8-chloroadenosine, 8-Chloroadenosine, reference compound] | 0.1 to 5 |  | 5.48 |  |  |  |  | 0.32 | 74 |  | 0.64 | 4.69 | almost zero | 0.1 to 5 | almost zero |  |
| C[C@H](NP(=O)(OC[C@H]1O[C@@H](n2c(Cl)nc3c(N)ncnc32)C(O)C1O)Oc1cccc2ccccc12)C(=O)OCc1ccccc1 (stereo partly drawn) [Compound D, (2S)-Benzyl 2-(((((2R,3S,4R,5R)-5-(6-amino-8-chloro-9H-purin-9-yl)-3,4-dihydroxy-tetrahydrofuran-2-yl)methoxynaphthalene-1-yloxy)phosphoryl)amino)propanoate] |  | 10.3 | 1.46 |  | did not produce significant difference |  | did not produce significant difference | 2.64 |  |  | 6.63 | 1.73 |  |  |  | 19.7 |
| CC(C)C[C@H](NP(=O)(OC[C@H]1O[C@@H](n2c(Cl)nc3c(N)ncnc32)C(O)C1O)Oc1ccccc1)C(=O)OCc1ccccc1 (stereo partly drawn) [V, 5′-([(Benzyloxy-L-leucin-N-yl)-phenyl]-phosphatyl) 8-chloroadenosine] | 15 to 100 |  |  |  |  |  |  |  | 99 | 15 to 100 |  |  |  |  |  |  |
